For assay [1], the target named is T1, EGFR T790M, L858R (amino acids 669-1011) (Homo sapiens, UniProt P00533, L858R/T790M).
T1 construct: purchased Eurofins Discovery (KdELECT); host or cells: mammalian cells (HEK-293)
Nature of the assay: KdELECT binding assay, EGFR T790M, L858R. As to the method:
Exemplary compounds were tested for ability to bind to EGFR WT (amino acids 669-1011, Accession Number NP_005219.2) or EGFR T790M, L858R (amino acids 669-1011 Accession Number NP_005219.2) expressed from bacteria or mammalian cells, respectively. Compounds were tested using the KdELECT assay at Eurofins Discovery.
Kinase-tagged T7 phage strains were prepared in an E. coli host derived from the BL21 strain. E. coli were grown to log-phase and infected with T7 phage and incubated with shaking at 32° C. until lysis. The lysates were centrifuged and filtered to remove cell debris. The remaining kinases were produced in HEK-293 cells and subsequently tagged with DNA for qPCR detection. Streptavidin-coated magnetic beads were treated with biotinylated small molecule ligands for 30 minutes at room temperature to generate affinity resins for kinase assays. The liganded beads were blocked with excess biotin and washed with blocking buffer (SeaBlock (Pierce), 1% BSA, 0.05% Tween 20, 1 mM DTT) to remove unbound ligand and to reduce non-specific binding. Binding reactions were assembled by combining kinases, liganded affinity beads, and test compounds in 1x binding buffer (20% SeaBlock, 0.17× PBS, 0.05% Tween 20, 6 mM DTT). Test compounds were prepared as 111× stocks in 100% DMSO. Kd values were determined using an 11-point 3-fold compound dilution series with three DMSO control points. All compounds for Kd measurements are distributed by acoustic transfer (non-contact dispensing) in 100% DMSO. The compounds were then diluted directly into the assays such that the final concentration of DMSO was 0.9%. All reactions performed in polypropylene 384-well plate. Each was a final volume of 0.02 mL. The assay plates were incubated at room temperature with shaking for 1 hour and the affinity beads were washed with wash buffer (1× PBS, 0.05% Tween 20). The beads were then re-suspended in elution buffer (1× PBS, 0.05% Tween 20, 0.5 μM nonbiotinylated affinity ligand) and incubated at room temperature with shaking for 30 minutes. The kinase concentration in the eluates was measured by qPCR.

Assay [2] deals with T2, KRAS G12C (Homo sapiens, UniProt P01116, G12C). Nature of the assay: KRAS G12C nucleotide exchange assay (SOS1-mediated, HTRF). The assay is classed as biochemical. Details: GST-tagged KRAS G12C (amino acids 2-169). The note with it: 1 hr pre-incubation. An outline of the steps:
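GST-tagged KRAS G12C (aa 2-169, 30 nM) pre-incubated 1 h at RT with compound (10-point, 3-fold dilution from 10 μM), then SOS1 (aa 564-1049, 20 nM) and GTP-DY-647P1 (0.15 μM) added. Exchange read by HTRF with anti-GST Tb antibody. IC50 from sigmoidal variable-slope fit.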
In general terms: TR-FRET usually uses a lanthanide donor and a delayed reading to cut background.
Target sequence in this assay (P01116 2-169 isoform P01116-2 G12C): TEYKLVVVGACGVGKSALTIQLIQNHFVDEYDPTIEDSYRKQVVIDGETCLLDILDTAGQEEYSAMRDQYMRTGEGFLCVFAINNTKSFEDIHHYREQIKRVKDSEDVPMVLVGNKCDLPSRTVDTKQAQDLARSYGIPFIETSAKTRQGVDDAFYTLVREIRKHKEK

For assay [3], the target named is T2, KRAS G12C. Nature of the assay: KRAS G12C cellular target engagement assay (SW1573 cells). The assay is classed as cell-based. Details: host or cells: SW1573. The note with it: 17 hours, read-out: TE50 (the source's name). As for the experimental part: SW1573 cells (ATCC CRL-2170) were cultured in RPMI 1640 (Gibco A1049101), supplemented with 10% Heat-inactivated FBS (Gibco Cat. #A38400-01) and 1% Penicillin/Streptomycin (Gibco Cat. #15140-122) in an incubator set at 37° C. and 5% CO2. Cells were seeded at 100,000 cells/ml in 1 ml of complete media in a 24-well, tissue culture-treated plate (Falcon 353226) and incubated overnight. Cells were treated with increasing concentrations of compound and let incubate at 37C and 5% CO2 for 17 hours, after which media was aspirated and cells were lysed in 75 uL RIPA Lysis and Extraction Buffer (Thermo 89901) supplemented with 5 mM MgCl2, Protease and Phosphatase inhibitor cocktail (Thermo 1861281), and Universal Nuclease (Thermo 88700). Plates with RIPA were shaken at 4° C. at 600 rpm for 15 min. After shaking samples, they were collected and spun down at 21,000 g for 15 min at 4° C. Following centrifugation, ˜10 ug of lysate was added to Laemmli Sample Buffer (Bio-Rad 1610747) plus 10% beta-mercaptoethanol, boiled for 15 minutes at 65° C. and loaded onto 12% Mini-PROTEAN TGX™ Precast Protein Gels (Bio-Rad). Protein was transferred to a nitrocellulose membrane (Thermo LC2000) using the iBlot 2 Dry Blotting System (Thermo). After transfer, membranes were washed in 1× TBST (Bioland Scientific LLC TBST0103) 3× for 5 min. Following the wash, blocking buffer (Rockland MB-070) was added for 1 hour at room temperature. Primary antibodies against KRAS (LifeSpan Bio LS-C175665) and actin (Cell Signaling Technology 8457) were added overnight at 4° C. Membranes were then washed again 3× for 5 min in 1× TBST. Secondary antibodies (LI-COR 926-68072 and 926-68073) were added and shaken for 1 hr at room temperature. Membranes were then washed 3× for 5 min in 1×TBST and developed. Membranes were placed on an Odyssey imager (LI-COR).
Target sequence in this assay (P01116 1-188 isoform P01116-2 G12C): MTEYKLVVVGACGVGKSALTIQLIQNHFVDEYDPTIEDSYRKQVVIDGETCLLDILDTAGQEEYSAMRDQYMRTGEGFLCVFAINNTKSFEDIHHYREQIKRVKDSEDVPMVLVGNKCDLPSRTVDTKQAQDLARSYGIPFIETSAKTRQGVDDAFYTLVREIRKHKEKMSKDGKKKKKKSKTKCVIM

T1 sequence (P00533 669-1011 T790M/L858R): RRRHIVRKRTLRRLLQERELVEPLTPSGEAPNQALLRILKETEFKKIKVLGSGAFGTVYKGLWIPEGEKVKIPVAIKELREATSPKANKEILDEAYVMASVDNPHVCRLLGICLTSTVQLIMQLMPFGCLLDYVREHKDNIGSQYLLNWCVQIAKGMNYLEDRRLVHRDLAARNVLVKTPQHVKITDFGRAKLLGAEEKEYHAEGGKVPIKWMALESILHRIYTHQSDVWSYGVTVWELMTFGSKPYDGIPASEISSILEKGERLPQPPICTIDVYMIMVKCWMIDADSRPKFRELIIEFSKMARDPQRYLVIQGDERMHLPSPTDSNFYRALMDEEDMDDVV

Consider `C=C(CN(C(=O)NCc1ccc2c(c1)CN(C1CCC(=O)NC1=O)C2=O)c1ccc(C)c(Cl)c1)C(=O)Nc1cc(Nc2ncc(-c3cn(C)c4ccccc34)cn2)c(OC)cc1N(C)CCN(C)C` (stereo not drawn) [Compound I-42], for which the Kd in assay [1] lay within 500 to 2500 nM.

In assay [1], `C=C(COc1cc(Cl)cc(NC(=O)NCc2ccc3c(c2)CN(C2CCC(=O)NC2=O)C3=O)c1)C(=O)N[C@@H]1CN(c2nc(Nc3cn(C)nc3OC)c3ncn(C)c3n2)C[C@H]1F` (stereo partly drawn) [Compound I-45] displayed a Kd of less than 50 nM.

In the case of `C=C(COc1ccc(Cl)cc1NC(=O)NCc1ccc2c(c1)CN(C1CCC(=O)NC1=O)C2=O)C(=O)N[C@@H]1CN(c2nc(Nc3cn(C)nc3OC)c3ncn(C)c3n2)C[C@H]1F` (stereo partly drawn) [Compound I-47], the Kd in assay [1] was less than 50 nM.

Take `C=C(COc1cc(Cl)cc(NC(=O)NCc2ccc3c(c2)CN(C2CCC(=O)NC2=O)C3=O)c1)C(=O)N1C[C@H](COc2nc(Nc3cnn(C)c3)nc3[nH]cc(Cl)c23)[C@@H](OC)C1` (stereo partly drawn) [Compound I-54]: the Kd in assay [1] was greater than 2500 nM.

With `C=C(COc1cc(Cl)cc(NC(=O)NCc2ccc3c(c2)CN(C2CCC(=O)NC2=O)C3=O)c1)C(=O)Nc1cccc(Oc2nc(Nc3ccc(N4CCN(C)CC4)cc3)nc3ccsc23)c1` (stereo not drawn) [Compound I-55], the Kd in assay [1] lay within 500 to 2500 nM.

Regarding `C=C(COc1cc(Cl)cc(NC(=O)NCc2ccc3c(c2)CN(C2CCC(=O)NC2=O)C3=O)c1)C(=O)Nc1cc(Nc2nccc(-c3cn(C)c4ccccc34)n2)c(OC)cc1N(C)CCN(C)C` (stereo not drawn) [Compound I-59], the Kd in assay [1] was less than 50 nM.

The compound `C=C(COc1c(Cl)cccc1NC(=O)NCc1ccc2c(c1)CN(C1CCC(=O)NC1=O)C2=O)C(=O)Nc1cc(Nc2nccc(-c3cn(C)c4ccccc34)n2)c(OC)cc1N(C)CCN(C)C` (stereo not drawn) [Compound I-60] returned a Kd in assay [1] of less than 50 nM.

Consider `C=C(COc1cc(Cl)cc(NC(=O)NCc2ccc3c(c2)CN(C2CCC(=O)NC2=O)C3=O)c1)C(=O)Nc1cccc(-c2cccc3cnc(Nc4ccc(N5CCN(CCO)CC5)c(F)c4F)nc23)c1` (stereo not drawn) [Compound I-61], for which the Kd in assay [1] lay within 50 to 500 nM.

In turn, `C=C(COC(=O)NCCCc1ccc(Cl)cc1NC(=O)NCc1ccc2c(c1)CN(C1CCC(=O)NC1=O)C2=O)C(=O)N1CCN(c2nc(OC[C@@H]3CCCN3C)nc3c2CCN(c2cccc4cccc(Cl)c24)C3)C[C@@H]1CC#N` (stereo partly drawn) [Compound I-79] had an IC50 at KRAS G12C [2] of less than 100 nM. For the same compound, the EC50 at KRAS G12C [3] was less than 250 nM.

`C=C(COc1ccccc1NC(=O)NCc1ccc2c(c1)CN(C1CCC(=O)NC1=O)C2=O)C(=O)N1CCN(c2nc(OC[C@H]3CCCN3C)nc3c2CCN(c2cccc4cccc(Cl)c24)C3)C[C@H]1CC#N` (stereo partly drawn) [Compound I-80] yielded an IC50 against KRAS G12C [2] of less than 100 nM. On KRAS G12C [3], the EC50 was less than 250 nM.

`C=C(COc1cc(Cl)cc(NC(=O)NCc2ccc3c(c2)CN(C2CCC(=O)NC2=O)C3=O)c1F)C(=O)N1CCN(c2nc(OC[C@@H]3CCCN3C)nc3c2CCN(c2cccc4cccc(Cl)c24)C3)C[C@@H]1CC#N` (stereo partly drawn) [Compound I-84] displayed an IC50 on KRAS G12C [2] greater than 10000 nM. In addition, the EC50 at KRAS G12C [3] was greater than 10000 nM.

The compound `C=C(COc1cc(NC(=O)NCc2ccc3c(c2F)CN(C2CCC(=O)NC2=O)C3=O)cc(C(F)(F)F)c1)C(=O)N1CCN(c2nc(OC[C@@H]3CCCN3C)nc3c2CCN(c2cccc4cccc(Cl)c24)C3)C[C@@H]1CC#N` (stereo partly drawn) [Compound I-85] displayed an IC50 against KRAS G12C [2] of less than 100 nM. Further, the EC50 on KRAS G12C [3] is less than 250 nM.

As for `C=C(COc1c(Cl)cccc1NC(=O)NCc1ccc2c(c1)CN(C1CCC(=O)NC1=O)C2=O)C(=O)N1CCN(c2nc(OC[C@@H]3CCCN3C)nc3c2CCN(c2cccc4cccc(Cl)c24)C3)C[C@@H]1CC#N` (stereo partly drawn) [Compound I-86], on KRAS G12C [2], the IC50 was less than 100 nM. The EC50 at KRAS G12C [3] lay in the range of 250 to 5000 nM.

`C=C(CN1C(=O)CCC(N2Cc3cc(CNC(=O)Nc4ccc(C)c(Cl)c4)ccc3C2=O)C1=O)C(=O)Nc1cc(Nc2ncc(-c3cn(C)c4ccccc34)cn2)c(OC)cc1N(C)CCN(C)C` (stereo not drawn) [Compound I-87] registered a Kd in assay [1] of less than 50 nM.

`C=C(COc1cc(C(F)(F)F)c(Cl)cc1NC(=O)NCc1ccc2c(c1)CN(C1CCC(=O)NC1=O)C2=O)C(=O)N1CCN(c2nc(OC[C@@H]3CCCN3C)nc3c2CCN(c2cccc4cccc(Cl)c24)C3)C[C@@H]1CC#N` (stereo partly drawn) [Compound I-88] came in with an IC50 at KRAS G12C [2] of less than 100 nM. Also, at KRAS G12C [3], the EC50 is less than 250 nM.

`C=C(COc1cc(NC(=O)NCc2ccc3c(c2)CN(C2CCC(=O)NC2=O)C3=O)ccc1OC)C(=O)N1CCN(c2nc(OC[C@@H]3CCCN3C)nc3c2CCN(c2cccc4cccc(Cl)c24)C3)C[C@@H]1CC#N` (stereo partly drawn) [Compound I-89] gave an IC50 against KRAS G12C [2] of less than 100 nM. At KRAS G12C [3], the EC50 was 250 to 5000 nM.

With `C=C(COc1c(CNC(=O)Nc2ccc(C)c(Cl)c2)ccc2c1CN(C1CCC(=O)NC1=O)C2=O)C(=O)N1CCN(c2nc(OC[C@@H]3CCCN3C)nc3c2CCN(c2cccc4cccc(Cl)c24)C3)C[C@@H]1CC#N` (stereo partly drawn) [Compound I-90], the IC50 against KRAS G12C [2] is less than 100 nM. For the same compound, the EC50 at KRAS G12C [3] was less than 250 nM.

Turning to `C=C(COc1cc(Cl)cc(NC(=O)NCc2ccc3c(c2F)CN(C2CCC(=O)NC2=O)C3=O)c1)C(=O)N1CCN(c2nc(OC[C@@H]3CCCN3C)nc3c2CCN(c2cccc4cccc(Cl)c24)C3)C[C@@H]1CC#N` (stereo partly drawn) [Compound I-116], the IC50 against KRAS G12C [2] is less than 100 nM. Also, at KRAS G12C [3], the EC50 was less than 250 nM.

The compound `C=C(COC(=O)n1c(CNc2nc(N3CCNCC3)nc3c(Br)cnn23)nc2cc(C)ccc21)C(=O)N1C[C@H](COc2nc(Nc3cnn(C)c3)nc3[nH]cc(Cl)c23)[C@@H](OC)C1` [Compound V-4] came in with a Kd in assay [1] greater than 2500 nM.

Consider `C=C(COc1cc(-c2ccccn2)ccc1CNc1nc(N[C@H](CC)CO)nc2c1ncn2C(C)C)C(=O)N[C@@H]1CN(c2nc(Nc3cn(C)nc3OC)c3ncn(C)c3n2)C[C@H]1F` [II-183], for which the Kd in assay [1] lay within 50 to 500 nM.

`C=C(COC(=O)N1CCN(c2nc(NCc3nc4cc(C)ccc4[nH]3)n3ncc(Br)c3n2)CC1)C(=O)N1C[C@H](COc2nc(Nc3cnn(C)c3)nc3[nH]cc(Cl)c23)[C@@H](OC)C1` [II-185]: the Kd in assay [1] is greater than 2500 nM.

`C=C(COc1cc(-c2ccccn2)ccc1CNc1nc(N[C@H](CC)CO)nc2c1ncn2C(C)C)C(=O)N1CCN(c2nc(OC[C@@H]3CCCN3C)nc3c2CCN(c2cccc4cccc(Cl)c24)C3)C[C@@H]1CC#N` [II-186] yielded an IC50 against KRAS G12C [2] of less than 100 nM. Further, the EC50 at KRAS G12C [3] was 250 to 5000 nM.

In assay [1], `C=C(CN1CCN(c2nc(NCc3nc4cc(C)ccc4[nH]3)n3ncc(Br)c3n2)CC1)C(=O)Nc1cc(Nc2nccc(-c3cn(C)c4ccccc34)n2)c(OC)cc1N(C)CCN(C)C` [II-188] yielded a Kd of less than 50 nM.

On KRAS G12C [2], `C=C(CN1CCN(c2nc(NCc3nc4cc(C)ccc4[nH]3)n3ncc(Br)c3n2)CC1)C(=O)N1CCN(c2nc(OC[C@@H]3CCCN3C)nc3c2CCN(c2cccc4cccc(Cl)c24)C3)C[C@@H]1CC#N` [II-190] yielded an IC50 of less than 100 nM. Moreover, the EC50 on KRAS G12C [3] lay in the range of 250 to 5000 nM.

In assay [1], `C=C(CN1CCN(c2nc(NCc3nc4cc(C)ccc4[nH]3)n3ncc(Br)c3n2)CC1)C(=O)Nc1cccc(-c2cccc3cnc(Nc4ccc(N5CCN(CCO)CC5)c(F)c4F)nc23)c1` [II-191] yielded a Kd of 500 to 2500 nM.

By Kd is commonly meant the equilibrium constant for the complex coming apart. The low end stands for tighter binding, the high end for weaker binding. As usually defined, the IC50 is the concentration that inhibits the measured activity by half. A low value points to higher potency.

The values are drawn from patent US20240408093A1, “HETEROBIFUNCTIONAL COMPOUNDS AND THEIR USE IN TREATING DISEASE” (HALDA THERAPEUTICS OPCO, INC., priority 2022, published 2024).
